Assay results as given in patent US10738053B2, “Bicyclic compounds as dual ATX/CA inhibitors” (Hoffmann-La Roche Inc., priority 2015, dated 2020).
pIC50: −log10 of the molar value.

Assays:
[1] = biological target: Human carbonic anhydrase II (hCA-II) (Homo sapiens (Human), UniProt P00918); assay: Human carbonic anhydrase-II inhibition assay (absorbance, 4-NPA substrate); format: biochemical; conditions: hCA II 8 nM, 4-NPA 2.5 mM, absorbance 340 nm; read-out: CA-II IC50
Procedure: Human Carbonic Anhydrase-II Inhibition Assay
Then 30 μL of 16 nM hCA II solution was added (8 nM final concentration), mixed five times. 30 μL of 4-NPA substrate solution was added (2.5 mM final concentration), mixed five times.

human ATX = human ATX (Homo sapiens (Human), UniProt Q13822); assay: Human ATX enzyme inhibition assay (fluorescence quenching, MR121 substrate); format: biochemical; conditions: human His-tagged ATX 30 nM, MR121 substrate 1 μM
Procedure: Production of Human Full Length ATX, with and without His Tag
Autotaxin (ATX-ENPP2) cloning: cDNA was prepared from commercial human hematopoietic cells total RNA and used as template in overlapping PCR to generate a full length human ENPP2 ORF with or without a 3′-6× His tag. These full length inserts were cloned into the pcDNA3.1V5-His TOPO (Invitrogen) vector. The DNA sequences of several single clones were verified. The DNA from a correct full length clone was used to transfect Hek293 cells for verification of protein expression. The sequence of the encoded ENPP2 conforms to Swissprot entry Q13822, with or without the additional C-terminal 6× His tag.
ATX Fermentation: Recombinant protein was produced by large-scale transient transfection in 20 L controlled stirred tank bioreactors (Sartorius). During cell growth and transfection, temperature, stirrer speed, pH and dissolved oxygen concentration were maintained at 37° C., 120 rpm, 7.1 and 30% DO, respectively. FreeStyle 293-F cells (Invitrogen) were cultivated in suspension in FreeStyle 293 medium (Invitrogen) and transfected at ca. 1-1.5×10E6 cells/mL with above plasmid DNAs using X-tremeGENE Ro-1539 (commercial product, Roche Diagnostics) as complexing agent. Cells were fed a concentrated nutrient solution (J Immunol Methods 194 (1996), 19, 1-199 (page 193)) and induced by sodium butyrate (2 mM) at 72 h post-transfection and harvested at 96 h post-transfection. Expression was analyzed by Western Blot, enzymatic assay and/or analytical IMAC chromatography. After cooling the cell suspension to 4° C. in a flow-through heat exchanger, cell separation and sterile filtration of supernatant was performed by filtration through Zeta Plus 60M02 E16 (Cuno) and Sartopore 2 XLG (Sartorius) filter units. The supernatant was stored at 4° C. prior to purification.
ATX Purification: 20 liter of culture supernatant were conditioned for ultrafiltration by adding Brij 35 to a final concentration of 0.02% and by adjusting the pH to 7.0 using 1 M HCl. Then the supernatant was first microfiltred through a 0.2 µm Ultran-Pilot Open Channel PES filter (Whatman) and afterwards concentrated to 1 liter through an Ultran-Pilot Screen Channel PES filter with 30 kDa MWCO (Whatman). Prior to IMAC chromatography, NiSO4 was added to a final concentration of 1 mM. […] The column was washed stepwise with the same buffer containing 20 mM, 40 mM and 50 mM imidazole, respectively. The protein was subsequently eluted using a linear gradient to 0.5 M imidazole in 15 column volumes. ATX containing fractions were pooled and concentrated using an Amicon cell equipped with a 30 kDa PES filter membrane. […] Final yield of protein after purification was 5-10 mg ATX per liter of culture supernatant. The protein was stored at −80° C.
Human ATX Enzyme Inhibition Assay
Test compounds (10 mM stock in DMSO, 8 μL) were obtained in 384 well sample plates (Corning Costar #3655) and diluted with 8 μL DMSO. […] Then, 15 μL of 41.7 nM ATX solution was added (30 nM final concentration), mixed five times and then incubated for 15 minutes at 30° C. 10 μL of MR121 substrate solution was added (1 μM final concentration), mixed 30 times and then incubated for 15 minutes at 30° C.

Row | pIC50 [1] | pIC50 (human ATX) | SMILES
1 | 7.89 | 7.96 | CO[C@@]12CN(C(=O)OCc3ncc(C(F)(F)F)cc3NC(=O)C(C)(C)C)C[C@H]1CN(C(=O)c1ccc(S(N)(=O)=O)cc1)C2 (single isomer, unassigned) [Example 4.03, (−) trans-5-(4-sulfamoyl-benzoyl)-3a-methoxy-hexahydro-pyrrolo[3,4-c]pyrrole-2-carboxylic acid 3-(2,2-dimethyl-propionylamino)-5-trifluoromethyl-pyridin-2-ylmethyl ester]
2 | 7.57 | 8.22 | CO[C@@]12CN(C(=O)OCc3ccc(OC(F)(F)F)cc3)C[C@H]1CN(C(=O)c1ccc(S(N)(=O)=O)cc1)C2 (single isomer, unassigned) [Example 5.01, (+)-trans-5-(4-sulfamoyl-benzoyl)-3a-methoxy-hexahydro-pyrrolo[3,4-c]pyrrole-2-carboxylic acid 4-trifluoromethoxy-benzyl ester]
3 | 7.82 | 8.40 | NS(=O)(=O)c1ccc(C(=O)N2C[C@@H]3CN(C(=O)OCc4ccc(OC(F)(F)F)cc4)C[C@@]3(F)C2)cc1 (single isomer, unassigned) [Example 5.02, (+)-trans-5-(4-sulfamoyl-benzoyl)-3a-fluoro-hexahydro-pyrrolo[3,4-c]pyrrole-2-carboxylic acid 4-trifluoromethoxy-benzyl ester]
4 | 7.70 | 7.89 | CO[C@@]12CN(C(=O)OCc3ncc(C(F)(F)F)cc3NC(=O)C(C)(C)C)C[C@H]1CN(C(=O)c1ccc(S(N)(=O)=O)cc1)C2 (single isomer, unassigned) [Example 5.03, (+)-trans-5-(4-sulfamoyl-benzoyl)-3a-methoxy-hexahydro-pyrrolo[3,4-c]pyrrole-2-carboxylic acid 3-(2,2-dimethyl-propionylamino)-5-trifluoromethyl-pyridin-2-ylmethyl ester]
5 | 7.02 | 8.22 | C[C@@]12CN(C(=O)OCc3ccc(OC(F)(F)F)cc3)C[C@H]1CN(C(=O)c1ccc(S(N)(=O)=O)cc1)C2 [Example 4.00, (+)-(3aR,6aR)-3a-Methyl-5-(4-sulfamoyl-benzoyl)-hexahydro-pyrrolo[3,4-c]pyrrole-2-carboxylic acid 4-trifluoromethoxy-benzyl ester]
6 | 7.42 | 8.15 | C[C@]12CN(C(=O)OCc3ccc(OC(F)(F)F)cc3)C[C@@H]1CN(C(=O)c1ccc(S(N)(=O)=O)cc1)C2 [Example 5.00, (−)-(3aS,6aS)-3a-methyl-5-(4-sulfamoylbenzoyl)-hexahydro-pyrrolo[3,4-c]pyrrole-2-carboxylic acid 4-trifluoromethoxy-benzyl ester]
